Test results taken from US5428059A, “Benzopyran derivatives and an anti-allergic agent possessing the same as the active ingredient” (Dainippon Ink & Chemicals, Inc., priority 1991, dated 1995).

test system: Hartley-type male guinea pigs; experiment: Guinea Pig Homogeneous Skin Passive Anaphylaxis Assay (PCA reaction); type: in vivo, guinea pig (Hartley-type); conditions: 10 mg/kg oral, 48 h after sensitization
Description: In order to confirm the anti-allergic action of the compounds according to the present invention, as an anti-allergic action confirmation assay, the widely used Guinea Pig Homogeneous Skin Passive Anaphylaxis Assay (PCA Reaction Assay; Passive Cutaneous Anaphylaxis Reaction Assay) was carried out. The assay method used will be explained in the following.
Assay method: Hartley-type male guinea pigs (body weight: 250~300 g) were sensitized by the following procedure; a mixture of 2 μg of egg albumin (OVA) and 5 μg of aluminium hydroxide gel was administered intraperitoneally 3 times every 2 weeks, and the anti-OVA blood serum was manufactured.
The anti-blood serum obtained was then diluted 120 times using physiological saline solution, and then to groups each containing 6 shaved guinea pigs, was injected at a quantity of 0.05 ml respectively, into two positions in the back portion, inside the skin of each animal.
After the 48th hour of sensitization, 10 mg/kg of the test substance to be tested was orally administered, following which a mixture of 2 mg OVA and 5 mg of Evans Blue was administered by intraveneous injection into the hind leg, triggering the anaphylaxis reaction. As the positive control, Tranilast, a well known anti-allergic agent, was used, and in the same manner as the substances to be tested, 100 mg/kg of it was orally administered after the 48th hour of sensitization.
30 minutes after triggering the reaction, the animals were bled to death under ether anesthesia, and their back portion skins were peeled off. The long and short diameters of pigment leakage spots on the interior surface of the skins were measured, and the product of these (mm^2) were entered into formula 1 as "pigment leakage amount", from which the allergic reaction inhibitory index wins calculated. [formula]
I: Allergic reaction inhibitory index (%)
A: Pigment leakage amount of solvent control group
B: Pigment leakage amount of test substance group
C: Pigment leakage amount of […]

Molecule | Allergic reaction inhibitory index (%)
3-(methoxy)-4-(decyloxy)-8-hydroxy-2H-1-benzopyran-2-one [Compound 99] | 33%

same assay, conditions: Cavia porcellus, 10 mg/kg oral, 48 h after sensitization, read-out: Allergic reaction inhibitory index (%)

Molecule | inhibition in vivo at 10 mg/kg
CC(C)=CCC/C(C)=C/COc1c(OC(=O)c2ccccc2)c(=O)oc2c(OC/C=C(\C)CCC=C(C)C)cccc12 [Compound 170, 3-(benzoyloxy)-4,8-(digeranyloxy)-2H-1-benzopyran-2-one] | 31%
CCCCCCCCCCOc1c(OC(=O)c2ccccc2)c2cccc(OC(C)C)c2oc1=O [Compound 137, 3-(decyloxy)-4-(benzoyloxy)-8-(isopropoxy)-2H-1-benzopyran-2-one] | 32%
COc1cccc2c(O)c(O)c(=O)oc12 [Compound 111, 3,4-(dihydroxy)-8-(methoxy)-2H-1-benzopyran-2-one] | 38%
COc1c(OC(C)=O)c2ccc(OC/C=C(\C)CCC=C(C)C)cc2oc1=O [Compound 82, 3-(methoxy)-4-(acetoxy)-7-(geranyloxy)-2H-1-benzopyran-2-one] | 30%
CC(C)=CCC/C(C)=C/COc1ccc2c(OC/C=C(\C)CCC=C(C)C)c(O)c(=O)oc2c1 [Compound 84, 3-hydroxy-4,7-(digeranyloxy)-2H-1-benzopyran-2-one] | 30%
COc1cccc2oc(=O)c(OC/C=C(\C)CCC=C(C)C)c(OC(C)C)c12 [Compound 207, 3-(geranyloxy)-4-(isopropoxy)-5-(methoxy)-2H-1-benzopyran-2-one] | 33%
CC(=O)Oc1c(OC(C)=O)c2cccc(OC(C)C)c2oc1=O [Compound 132, 3,4-(diacetoxy)-8-(isopropoxy)-2H-1-benzopyran-2-one] | 32%
COc1ccc2c(OC/C=C(\C)CCC=C(C)C)c(OC/C=C(\C)CCC=C(C)C)c(=O)oc2c1 [Compound 43, 3,4-(digeranyloxy)-7-(methoxy)-2H-1-benzopyran-2-one] | 30%
COc1ccc2c(OC/C=C(\C)CCC=C(C)C)c(OC(C)=O)c(=O)oc2c1 [Compound 40, 3-(acetoxy)-4-(geranyloxy)-7-(methoxy)-2H-1-benzopyran-2-one] | 34%
O=C(Oc1c(O)c2cc(O)ccc2oc1=O)c1ccccc1 [Compound 262, 3-(benzoyloxy)-4,6-(dihydroxy)-2H-1-benzopyran-2-one] | 30%
COc1cccc2oc(=O)c(OC/C=C(\C)CCC=C(C)C)c(O)c12 [Compound 203, 3-(geranyloxy)-4-hydroxy-5-(methoxy)-2H-1-benzopyran-2-one] | 41%
CCCCCCCCCCOc1cccc2c(OC/C=C(\C)CCC=C(C)C)c(OC/C=C(\C)CCC=C(C)C)c(=O)oc12 [Compound 157, 3,4-(digeranyloxy)-8-(decyloxy)-2H-1-benzopyran-2-one] | 30%
CC(=O)Oc1c(OC(C)=O)c2cccc(OC(C)=O)c2oc1=O [Compound 95, 3,4,8-(triacetoxy)-2H-1-benzopyran-2-one] | 30%
CC(C)=CCC/C(C)=C/COc1cccc2oc(=O)c(OC(=O)c3ccccc3)c(OC(C)C)c12 [Compound 251, 3-(benzoyloxy)-4-(isopropoxy)-5-(geranyloxy)-2H-1-benzopyran-2-one] | 30%
COc1cccc2oc(=O)c(OC(=O)c3ccccc3)c(O)c12 [Compound 194, 3-(benzoyloxy)-4-hydroxy-5-(methoxy)-2H-1-benzopyran-2-one] | 46%
CCCCCCCCCCOc1ccc2c(OC(C)C)c(OC)c(=O)oc2c1 [Compound 64, 3-(methoxy)-4-(isopropoxy)-7-(decyloxy)-2H-1-benzopyran-2-one] | 30%
CC(=O)Oc1c(OC(C)C)c2c(O)cccc2oc1=O [Compound 185, 3-(acetoxy)-4-(isopropoxy)-5-hydroxy-2H-1-benzopyran-2-one] | 30%

Molecule | inhibition in vivo at 10 mg/kg
CCCCCCCCCCOc1ccc2oc(=O)c(O)c(O)c2c1 [Compound 273, 3,4-(dihydroxy)-6-(decyloxy)-2H-1-benzopyran-2-one] | 30%
CC(C)=CCC/C(C)=C/COc1ccc2c(OC(C)C)c(O)c(=O)oc2c1 [Compound 79, 3-hydroxy-4-(isopropoxy)-7-(geranyloxy)-2H-1-benzopyran-2-one] | 32%
COc1c(OC/C=C(\C)CCC=C(C)C)c(=O)oc2cc(OC/C=C(\C)CCC=C(C)C)ccc12 [Compound 87, 3,7-(digeranyloxy)-4-(methoxy)-2H-1-benzopyran-2-one] | 31%
CCCCCCCCCCOc1c(O)c2cc(O)ccc2oc1=O [Compound 266, 3-(decyloxy)-4,6-(dihydroxy)-2H-1-benzopyran-2-one] | 33%
CCCCCCCCCCOc1cccc2c(OC(C)=O)c(O)c(=O)oc12 [Compound 145, 3-hydroxy-4-(acetoxy)-8-(decyloxy)-2H-1-benzopyran-2-one] | 32%
COc1c(OC/C=C(\C)CCC=C(C)C)c2cccc(OC)c2oc1=O [Compound 125, 3,8-(dimethoxy)-4-(geranyloxy)-2H-1-benzopyran-2-one] | 31%
COc1cccc2c(OC/C=C(\C)CCC=C(C)C)c(OC/C=C(\C)CCC=C(C)C)c(=O)oc12 [Compound 126, 3,4-(digeranyloxy)-8-(methoxy)-2H-1-benzopyran-2-one] | 30%
CCCCOc1c(OC(=O)c2ccccc2)c(=O)oc2cccc(O)c12 [Compound 224, 3-(benzoyloxy)-4-(butoxy)-5-hydroxy-2H-1-benzopyran-2-one] | 30%
CCCCOc1cccc2c(O)c(OC(=O)c3ccccc3)c(=O)oc12 [Compound 127, 3-(benzoyloxy)-4-hydroxy-8-(butyloxy)-2H-1-benzopyran-2-one] | 34%
CC(C)=CCC/C(C)=C/COc1ccc2c(OC/C=C(\C)CCC=C(C)C)c(OC(=O)c3ccccc3)c(=O)oc2c1 [Compound 86, 3-(benzoyloxy)-4,7-(digeranyloxy)-2H-1-benzopyran-2-one] | 30%
COc1ccc2c(OC/C=C(\C)CCC=C(C)C)c(O)c(=O)oc2c1 [Compound 38, 3-hydroxy-4-(geranyloxy)-7-(methoxy)-2H-1-benzopyran-2-one] | 31%
O=C(Oc1c(O)c(=O)oc2cc(O)ccc12)c1ccccc1 [Compound 8, 4-(benzoyloxy)-3,7-(dihydroxy)-2H-1-benzopyran-2-one] | 40%
CCCCCCCCCCOc1cccc2oc(=O)c(OC(C)C)c(O)c12 [Compound 233, 3-(isopropoxy)-4-hydroxy-5-(decyloxy)-2H-1-benzopyran-2-one] | 39%
COc1cccc2c(OC/C=C(\C)CCC=C(C)C)c(O)c(=O)oc12 [Compound 121, 3-hydroxy-4-(geranyloxy)-8-(methoxy)-2H-1-benzopyran-2-one] | 30%
COc1cccc2c(OC(C)C)c(O)c(=O)oc12 [Compound 116, 3-hydroxy-4-(isopropoxy)-8-(methoxy).2H-1-benzopyran-2-one] | 34%
COc1c(OC/C=C(\C)CCC=C(C)C)c2c(OC)cccc2oc1=O [Compound 208, 3,5-(dimethoxy)-4-(geranyloxy)-2H-1-benzopyran-2-one] | 32%
COc1c(O)c2c(OC/C=C(\C)CCC=C(C)C)cccc2oc1=O [Compound 248, 3-(methoxy)-4-hydroxy-5-(geranyloxy)-2H-1-benzopyran-2-one] | 35%
